# Test results: ChEMBL document CHEMBL5365456, “Isolation and biological activity of natural chalcones based on antibacterial mechanism classification” (Bioorg Med Chem, 2023)
# Legend:
# Escherichia coli [1] = assay: Antibiofilm activity against Escherichia coli 0157:H7 at 6.25 uM incubated for 24 hr by crystal violet staining based assay relative to control; assay type: functional
# Escherichia coli [2] = assay: Antibiofilm activity against Escherichia coli 0157:H7 at 200 uM incubated for 24 hr by crystal violet staining based assay relative to control; assay type: functional
# [3] = Inhibition of Escherichia coli 0157:H7 AI-2 incubated for 3.5 hrs in dark condition by microplate reader analysis
# Staphylococcus aureus [4] = assay: Antibiofilm activity against Staphylococcus aureus BAA44 incubated for 24 hr by crystal violet staining based assay; assay type: functional
# Bacillus subtilis = assay: Bactericidal activity against Bacillus subtilis as by CLSI-based micro broth dilution method; assay type: functional
# Staphylococcus aureus [5] = assay: Antibiofilm activity against Staphylococcus aureus 6538 at 0.78 ug/ml incubated for 24 hr by crystal violet staining based assay relative to control; assay type: functional
# Staphylococcus aureus [6] = assay: Antibiofilm activity against Staphylococcus aureus 6538 incubated for 24 hr by crystal violet staining based assay; assay type: functional
# Staphylococcus aureus [7] = assay: Antibiofilm activity against Staphylococcus aureus BAA44 at 0.78 ug/ml incubated for 24 hr by crystal violet staining based assay relative to control; assay type: functional
# Clostridioides difficile = assay: Antibacterial activity against Clostridium difficile ATCC 43255 assessed as bacterial growth inhibition incubated for 24 hrs by two-fold serial dilution method; assay type: functional
# Staphylococcus aureus [8] = assay: Antibacterial activity against Staphylococcus aureus ATCC 29213 assessed as bacterial growth inhibition incubated for 18 hrs by CLSI-based broth microdilution method; assay type: functional
# Staphylococcus aureus [9] = assay: Antibacterial activity against Staphylococcus aureus MSSA1 assessed bacterial growth inhibition by CLSI-based broth microdilution method; assay type: functional
# Escherichia coli [10] = assay: Antibiofilm activity against Escherichia coli 0157:H7 at 25 ug/ml incubated for 10 hrs by crystal violet staining based assay relative to control; assay type: functional
# Candida albicans [11] = assay: Inhibition of Candida albicans SC5314 hyphal transition at 74.55 ug/ml incubated for 24 hrs relative to control; assay type: functional
# Cutibacterium acnes [12] = assay: Antibacterial activity against Propionibacterium acnes KCTC3220 assessed as bacterial growth inhibition incubated for 48 hrs by broth microdilution assay; assay type: functional
# Streptococcus pyogenes [13] = assay: Antibiofilm activity against Streptococcus pyogenes ATCC 19615 at 23.4 ug/ml incubated for 1 hr by crystal violet staining based assay relative to control; assay type: functional; details: dose 23.4 µg/ml
# Candida albicans [14] = assay: Antifungal activity against Candida albicans SC5314 assessed as fungal growth inhibition incubated for 48 hrs by CLSI protocol based assay; assay type: functional
# Cutibacterium acnes [15] = assay: Antibacterial activity against Propionibacterium acnes KCTC5933 assessed as bacterial growth inhibition incubated for 48 hrs by broth microdilution assay; assay type: functional
# Escherichia coli [16] = assay: Antibiofilm activity against Escherichia coli 0157:H7 at 50 ug/ml incubated for 10 hrs by crystal violet staining based assay relative to control; assay type: functional
# Staphylococcus aureus [17] = assay: Antibacterial activity against Staphylococcus aureus ATCC 6538 assessed bacterial growth inhibition incubated for 24 hrs by CLSI-based broth dilution method; assay type: functional
# Staphylococcus aureus [18] = assay: Antibacterial activity against Staphylococcus aureus BAA 1707 assessed as bacterial growth inhibition by CLSI-based broth micro-dilution method; assay type: functional
# Sortase B = biological target: T1, Sortase B (Staphylococcus aureus, UniProt Q2FZE3); assay: Inhibition of Staphylococcus aureus sortase b transpeptidation expressed in Escherichia coli BL21 (DE3) cells using Fluorescent peptide as substrate at 16 ug/ml preincubated for 30 mins followed by substrate addition and measured for 1 hr by FRET assay
# T1 sequence (Q2FZE3 whole entry): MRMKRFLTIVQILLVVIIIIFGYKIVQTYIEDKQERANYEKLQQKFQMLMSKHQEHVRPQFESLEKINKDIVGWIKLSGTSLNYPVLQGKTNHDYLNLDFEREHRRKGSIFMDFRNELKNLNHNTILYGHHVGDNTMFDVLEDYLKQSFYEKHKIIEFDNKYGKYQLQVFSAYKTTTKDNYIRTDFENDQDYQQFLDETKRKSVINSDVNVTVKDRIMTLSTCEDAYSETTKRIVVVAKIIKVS
# Staphylococcus aureus [19] = assay: Antibacterial activity against Staphylococcus aureus Newman assessed as bacterial growth inhibition by CLSI-based broth micro-dilution method; assay type: functional
# Candida albicans [20] = assay: Antibiofilm activity against Candida albicans ATCC SC5314 at 74.55 ug/ml incubated for 24 hr by crystal violet staining based assay relative to control; assay type: functional
# Listeria monocytogenes = assay: Antibiofilm activity against Listeria monocytogenes CMCC 54004 at 20 ug/ml by crystal violet staining based assay relative to control; assay type: functional
# [21] = system: Mycobacterium tuberculosis; assay: Antitubercular activity against Mycobacterium tuberculosis H37Rv assessed as bacterial growth inhibition measured for 9 days; assay type: functional; details: 216 h, time 9 day
# [22] = system: Mycobacterium tuberculosis; assay: Antitubercular activity against XDR Mycobacterium tuberculosis X59 assessed as bacterial growth inhibition measured for 9 days; assay type: functional; details: X59, 216 h, time 9 day
# Streptococcus pyogenes [23] = assay: Antibacterial activity against Streptococcus pyogenes ATCC 19615 assessed bacterial growth inhibition incubated for 24 hrs by double dilution method; assay type: functional
# Cutibacterium acnes [24] = assay: Antibacterial activity against Propionibacterium acnes KCTC3314 assessed as bacterial growth inhibition incubated for 48 hrs by broth microdilution assay; assay type: functional
# Staphylococcus aureus [25] = assay: Antibiofilm activity against Staphylococcus aureus SA1199B incubated for 18 to 24 hrs by broth microdilution method; assay type: functional; details: time 18-24 hrs
# Staphylococcus aureus [26] = assay: Inhibition of Staphylococcus aureus ATCC 6538 Catalase at 7.81 ug/ml relative to control; details: dose 7.81 µg/ml
# Micrococcus luteus = assay: Antibacterial activity against Micrococcus luteus assessed bacterial growth inhibition by CLSI-based micro broth dilution method; assay type: functional
# Staphylococcus aureus [27] = assay: Antibiofilm activity against Staphylococcus aureus RN4220 at 8 to 256 ug/ml incubated for 18 to 24 hrs by broth microdilution method relative to control; assay type: functional; details: dose 8-256 µg/ml; time 18-24 hrs; at 8 to 256 µg/mL
# Staphylococcus aureus [28] = assay: Antibacterial activity against Staphylococcus aureus ATCC 25923 assessed as bacterial growth inhibition by CLSI-based broth micro-dilution method; assay type: functional
# Staphylococcus aureus [29] = assay: Antibacterial activity against Staphylococcus aureus 8325-4 assessed as bacterial growth inhibition by CLSI-based broth micro-dilution method; assay type: functional
# Cutibacterium acnes [30] = assay: Antibacterial activity against Propionibacterium acnes KCTC5527 assessed as bacterial growth inhibition incubated for 48 hrs by broth microdilution assay; assay type: functional
# Staphylococcus aureus [31] = assay: Antibacterial activity against Staphylococcus aureus BAA 1717 assessed as bacterial growth inhibition by CLSI-based broth micro-dilution method; assay type: functional
# Klebsiella pneumoniae = assay: Antibacterial activity against Klebsiella pneumoniae assessed bacterial growth inhibition by CLSI-based micro broth dilution method; assay type: functional
# Staphylococcus aureus [32] = assay: Antibiofilm activity against Staphylococcus aureus SA1199B at 128 ug/ml incubated for 18 to 24 hrs by broth microdilution method relative to control; assay type: functional; details: time 18-24 hrs
# Staphylococcus aureus [33] = assay: Antibiofilm activity against Staphylococcus aureus RN4220 incubated for 18 to 24 hrs by broth microdilution method; assay type: functional; details: time 18-24 hrs
# [34] = system: Pectobacterium brasiliense; assay: Antibiofilm activity against Pectobacterium brasiliense Pb1692 at 0.4 ug/ml incubated for 72 hr by crystal violet staining based assay relative to control; assay type: functional
# Staphylococcus aureus [35] = assay: Inhibition of Staphylococcus aureus ATCC 6538 LDH at 7.81 ug/ml relative to control; details: dose 7.81 µg/ml
# Staphylococcus aureus [36] = assay: Antibacterial activity against Staphylococcus aureus ATCC 29213 assessed as bacterial growth inhibition by CLSI-based broth micro-dilution method; assay type: functional
# [37] = system: Mycobacterium tuberculosis; assay: Antitubercular activity against XDR Mycobacterium tuberculosis X24 assessed as bacterial growth inhibition measured for 9 days; assay type: functional; details: X24, 216 h, time 9 day
# Staphylococcus aureus [38] = assay: Antibiofilm activity against Staphylococcus aureus RN4220 at 1 ug/ml incubated for 18 to 24 hrs by broth microdilution method relative to control; assay type: functional; details: time 18-24 hrs
# Candida albicans [39] = assay: Antifungal activity against Candida albicans SC5314 assessed as fungal growth inhibition incubated for 48 hrs by CLSI-based two-fold serial dilution method; assay type: functional
# Staphylococcus aureus [40] = assay: Inhibition of Staphylococcus aureus ATCC 6538 IDH at 7.81 ug/ml relative to control; details: dose 7.81 µg/ml
# Staphylococcus xylosus [41] = assay: Antibacterial activity against Staphylococcus xylosus ATCC 700404 assessed bacterial growth inhibition incubated for 24 hrs by Broth microdilution method; assay type: functional
# Escherichia coli [42] = assay: Antibacterial activity against Escherichia coli ANS1 assessed as bacterial growth inhibition incubated for 20 hrs by broth microdilution method; assay type: functional
# [43] = Inhibition of His-tagged Escherichia coli ANS1 FabG using acetoacetyl-CoA as substrate by spectrometric analysis
# Staphylococcus xylosus [44] = assay: Inhibition of Staphylococcus xylosus ATCC 700404 IGPD at 40 ug/ml relative to control; details: dose 40.0 µg/ml
# Staphylococcus xylosus [45] = assay: Antibiofilm activity against Staphylococcus xylosus ATCC 700404 at 20 ug/ml incubated for 24 hr by crystal violet staining based assay relative to control; assay type: functional
# [46] = Inhibition of FAS1 in Mycobacterium smegmatis mc2 155 transfected with pVV16 vector expressing Rv0636 by BCA assay; set-up: species or system Mycolicibacterium smegmatis
# [47] = Inhibition of FAS1 in Mycobacterium smegmatis mc2 155 transfected with pVV16 vector by BCA assay; set-up: species or system Mycolicibacterium smegmatis
# [48] = Inhibition of FAS2 in Mycobacterium smegmatis mc2 155 transfected with pVV16 vector expressing Rv0636 by BCA assay; set-up: species or system Mycolicibacterium smegmatis
# [49] = Inhibition of FAS2 in Mycobacterium smegmatis mc2 155 transfected with pVV16 vector by BCA assay; set-up: species or system Mycolicibacterium smegmatis
# [50] = Inhibition of His-tagged Escherichia coli ANS1 Fab1 using trans-2-octanoyl-N-acetylcysteamine as substrate by spectrometric analysis
smiles,measurement,setting,value
COc1cc(O)ccc1/C=C/C(=O)c1ccc(O)cc1 [ECHINATIN],inhibition at 6.25 µM,Escherichia coli [1],40%
same,inhibition at 200 µM,Escherichia coli [2],71.5%
same,IC50,[3],21.7 µM
CC(C)=CCc1c(O)ccc(C(=O)/C=C/c2ccc(O)cc2)c1O [ISOBAVACHALCONE],MBIC,Staphylococcus aureus [4],0.78 µg/mL
same,MBC,Bacillus subtilis,4 µg/mL
same,inhibition at 0.78 µg/mL,Staphylococcus aureus [5],75%
same,MBIC,Staphylococcus aureus [6],0.78 µg/mL
same,inhibition at 0.78 µg/mL,Staphylococcus aureus [7],80%
same,MIC,Clostridioides difficile,4 µg/mL
same,MIC,Staphylococcus aureus [8],4 µg/mL
same,MIC,Staphylococcus aureus [9],0.5 µg/mL
O=C(CCc1ccc(O)cc1)c1c(O)cc(O)cc1O [PHLORETIN],inhibition at 25 µg/mL,Escherichia coli [10],89%
same,inhibition at 74.55 µg/mL,Candida albicans [11],80%
same,MIC,Cutibacterium acnes [12],16 µM
same,inhibition (INH),Streptococcus pyogenes [13],46.4%
same,MIC,Candida albicans [14],74.5 µg/mL
same,MIC,Cutibacterium acnes [15],16 µM
same,inhibition at 50 µg/mL,Escherichia coli [16],93%
same,MIC,Staphylococcus aureus [17],7.81 µg/mL
same,MIC,Staphylococcus aureus [18],128 µg/mL
same,IC50,Sortase B,35.5 µM
same,MIC,Staphylococcus aureus [19],128 µg/mL
same,inhibition at 74.55 µg/mL,Candida albicans [20],76%
same,inhibition at 20 µg/mL,Listeria monocytogenes,60%
same,MIC90,[21],182 µM
same,MIC90,[22],182 µM
same,MIC,Streptococcus pyogenes [23],46.8 µg/mL
same,MIC,Cutibacterium acnes [24],16 µM
same,MBIC50,Staphylococcus aureus [25],256 µg/mL
same,inhibition,Staphylococcus aureus [26],30%
same,MIC50,Micrococcus luteus,230 µM
same,inhibition (INH),Staphylococcus aureus [27],>70%
same,MIC,Staphylococcus aureus [28],128 µg/mL
same,MIC,Staphylococcus aureus [29],128 µg/mL
same,MIC,Cutibacterium acnes [30],16 µM
same,MIC,Staphylococcus aureus [31],128 µg/mL
same,MIC50,Klebsiella pneumoniae,410 µM
same,inhibition at 128 µg/mL,Staphylococcus aureus [32],≥ 50%
same,IC50,[3],62.5 µM
same,MBIC50,Staphylococcus aureus [33],1 µg/mL
same,inhibition at 0.4 µg/mL,[34],> 60%
same,inhibition,Staphylococcus aureus [35],20%
same,MIC,Staphylococcus aureus [36],128 µg/mL
same,MIC90,[37],182 µM
same,inhibition at 1 µg/mL,Staphylococcus aureus [38],60%
same,MIC,Candida albicans [39],74.5 µg/mL
same,inhibition,Staphylococcus aureus [40],60%
O=C(/C=C/c1ccc(O)cc1)c1ccc(O)cc1O [ISOLIQUIRITIGENIN],MIC,Staphylococcus xylosus [41],80 µg/mL
same,MIC,Escherichia coli [42],25 µM
same,IC50,[43],20 µM
same,inhibition,Staphylococcus xylosus [44],60%
same,inhibition at 20 µg/mL,Staphylococcus xylosus [45],45%
same,IC50,[46],96 µg/mL
same,IC50,[47],96 µg/mL
same,IC50,[48],17 µg/mL
same,IC50,[49],7 µg/mL
same,IC50,[50],40 µM
